Series [1] deals with T1, β-hydroxy-β-methylglutaryl-CoA reductase (Homo sapiens, UniProt P04035).
T1 construct: ISOLATED HEPATOCYTES OF CHICKEN; endogenous in cells; host or cells: isolated hepatocytes of chicken
T1 sequence (P04035 1-888): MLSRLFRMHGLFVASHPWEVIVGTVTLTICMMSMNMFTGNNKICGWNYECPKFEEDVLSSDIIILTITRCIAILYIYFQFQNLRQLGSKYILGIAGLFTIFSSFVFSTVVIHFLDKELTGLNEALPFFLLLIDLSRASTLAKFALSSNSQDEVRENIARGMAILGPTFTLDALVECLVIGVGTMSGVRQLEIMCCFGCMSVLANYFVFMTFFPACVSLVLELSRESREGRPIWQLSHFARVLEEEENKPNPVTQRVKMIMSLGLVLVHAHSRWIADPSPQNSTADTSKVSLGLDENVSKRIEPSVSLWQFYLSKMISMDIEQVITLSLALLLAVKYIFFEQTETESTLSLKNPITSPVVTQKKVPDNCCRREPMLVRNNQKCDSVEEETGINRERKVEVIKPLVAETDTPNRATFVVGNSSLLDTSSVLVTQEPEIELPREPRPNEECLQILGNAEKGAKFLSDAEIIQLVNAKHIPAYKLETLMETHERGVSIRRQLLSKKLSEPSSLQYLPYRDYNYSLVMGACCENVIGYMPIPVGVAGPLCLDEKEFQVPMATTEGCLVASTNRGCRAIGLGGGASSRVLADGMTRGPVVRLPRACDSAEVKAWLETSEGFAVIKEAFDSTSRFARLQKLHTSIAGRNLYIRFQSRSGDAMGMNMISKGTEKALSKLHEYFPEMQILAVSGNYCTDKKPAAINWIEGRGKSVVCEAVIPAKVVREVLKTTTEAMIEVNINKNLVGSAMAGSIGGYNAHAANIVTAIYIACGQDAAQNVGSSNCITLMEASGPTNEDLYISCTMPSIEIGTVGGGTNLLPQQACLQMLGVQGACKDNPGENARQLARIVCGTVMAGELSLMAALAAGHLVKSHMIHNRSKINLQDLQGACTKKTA
Briefly: In vitro HMG-CoA reductase activity in isolated hepatocytes of chicken. The class given is cell-based. The settings on record: incubation 15 minutes; for β-Hydroxy-β Methylglutaryl-CoA Reductase: means of two replicates. The text has this: These observed effects on lipogensis and cholesterogenesis could be attributed to the chemical constituents of HPBF, but clearly could not be attributed to the water insoluble plant fibers because they were not present in the latter feeding trials. Moreover, these effects were also obtained in vitro using isolated hepatocytes from chickens and rats. […] Proc. 42:1973 (Abstr.)]. Conditions for the in vitro evaluation of the solvent extracts have been described [Qureshi AA et al. (1983): Inhibition of cholesterol and fatty acid biosynthesis in liver enzymes and chicken hepatocytes by polar fractions of garlic, Lipids 18:343-348].
Cholesterol inhibitor I was re-chromatographed by HPLC and the UV absorption spectrum obtained. Maximum absorption occurred at 292 nm. This purified fraction was used for high resolution mass spectrometric analysis. Several scans were made using ionization temperatures from 90-180 degrees Centigrade to increase the possibility of detecting impurities. The high resolution mass spectrometric analysis and measurements of different peaks gave a molecular ion peak at m/e 424 and main peaks at m/e 385, 205 and 165 corresponding to C29 H44 O2 (molecular formula) C25 H36 O2, C13 H17 O2 and C10 H13 O2 moieties, respectively, which are characteristic fragmentation moieties for d-alpha-tocotrienol. Lemon grass oil is a rich source of d-alpha-tocotrienol. This product and cholesterol inhibitor I at 20 ppm were compared with the petroleum ether soluble fraction of HPBF (20% equivalent HPBF) in a group of older male White Leghorn chickens (Table 3). The results shown on Table 3 confirm those previously recorded for petroleum ether solubles of HPBF and cholestrol inhibitor I. In a final experiment, the effects of cholestrol inhibitor I and lemon grass oil on hepatocyte HMG Co-A reductase and FAS activities were tested. Both components tested in the concentration range 5-100 microgram/ml, produced a concentration-dependent suppression of HMG Co-A reductase and concentration-dependent enhancement of FAS activity (Table 4).
^1 Tenweek-old female chickens were fed standard cornsoy diet. They
were fasted for 48 hrs. and refed 72 hrs. prior to the preparation of
^2 Incubation period was 15 minutes. Values represent means of two
replicates within incubation set.
^3 pmoles of mevalonic acid synthesized per minute per mg of […]

Series [2] can be described thus: Animal tests of pure d-α-tocotrienol: blood cholesterol and side effects. The class given is in vivo. The settings on record: test animals. From the text: We have isolated pure d-α-tocotrienol from barley. […] In addition to being extractable from natural sources, including barley and lemon grass oil, d-α-tocotrienol can be synthesized using available technology similar to that which has been used in the synthesis of Vitamin E and more recently as described by S. Urano et al. (J. Chem. Pharm. Bull. 31, 4341 (1983)).

The next series deals with T2, HMG-CoA reductase (Homo sapiens, UniProt P04035).
T2 sequence (P04035 1-888): T1 sequence (P04035 1-888)
Briefly: Hepatic HMG-CoA reductase activity in 13-week-old WLH male chickens. The note with it: 20 ppm in corn diet, fed four weeks, liver. Also on record: preparing subcellular fractions of liver and assay procedures for beta-hydroxy-beta-methylglutaryl coenzyme A (HMG Co-A) reductase; from tissue; host or cells: chicken liver (microsomal fraction). In kind it is in vivo, chicken. The text has this:
These responses were attributed to the presence in the small grains of relatively high concentrations of beta-D-glucans and pentosans. A long-standing interest in lipid metabolism prompted us to examine certain lipogenic and cholesterolgenic enzymes in the tissues of these birds. Methods used for handling blood samples, preparing subcellular fractions of liver and assay procedures for beta-hydroxy-beta-methylglutaryl coenzyme A (HMG Co-A) reductase, fatty acid synthetase (FAS), plasma cholesterol and triglycerides and the statistical treatment of the data have been described [Qureshi AA et al. (1980): Regulation of lipid metabolism in chicken livers by dietary cereals, J Nutr 110:388-393].
Cholesterol inhibitor I was re-chromatographed by HPLC and the UV absorption spectrum obtained. Maximum absorption occurred at 292 nm. This purified fraction was used for high resolution mass spectrometric analysis. Several scans were made using ionization temperatures from 90-180 degrees Centigrade to increase the possibility of detecting impurities. […] The results shown on Table 3 confirm those previously recorded for petroleum ether solubles of HPBF and cholestrol inhibitor I. In a final experiment, the effects of cholestrol inhibitor I and lemon grass oil on hepatocyte HMG Co-A reductase and FAS activities were tested. […]
expressed as mean ± SD; N = 8 chickens per group; HMGCoA reductase = […]

This note sets out measurements from patent US4603142A, “Cholesterol lowering method of use” (Wisconsin Alumni Research Foundation, priority 1984, dated 1986).

Turning to `CC(C)=CCC/C(C)=C/CC/C(C)=C/CC[C@]1(C)CCc2c(C)c(O)c(C)c(C)c2O1` [Cholesterol inhibitor I, 2,5,7,8-tetramethyl-2 (4,8, 12-trimethyltrideca-3,7, 11-trienyl)chroman-6-ol], the “β-Hydroxy-β Methylglutaryl-CoA Reductase” value in series [1] (5 μg/ml) is 45 pmoles of mevalonic acid synth; in series [1] (10 μg/ml), 40 pmoles of mevalonic acid synth; in series [1] (15 μg/ml), 31 pmoles of mevalonic acid synth; in series [1] (20 μg/ml), 30 pmoles of mevalonic acid synth; in series [1] (25 μg/ml), 28 pmoles of mevalonic acid synth; in series [1] (50 μg/ml) it was 22 pmoles of mevalonic acid synth. Further, the “β-Hydroxy-β Methylglutaryl-CoA Reductase” value in series [1] (100 μg/ml) is recorded as 23 pmoles of mevalonic acid synth. The remaining activity at 5 µg/mL in series [1] (0.25 h, 5 μg/ml, read-out: β-Hydroxy-β Methylglutaryl-CoA Reductase, percentage of control) came out at 87%. In addition, the remaining activity at 10 µg/mL in series [1] (0.25 h, 10 μg/ml, read-out: β-Hydroxy-β Methylglutaryl-CoA Reductase, percentage of control) is 77%. Moreover, the remaining activity at 15 µg/mL in series [1] (0.25 h, 15 μg/ml, read-out: β-Hydroxy-β Methylglutaryl-CoA Reductase, percentage of control) came out at 60%. In addition, the remaining activity at 20 µg/mL in series [1] (0.25 h, 20 μg/ml, read-out: β-Hydroxy-β Methylglutaryl-CoA Reductase, percentage of control) amounted to 57%. In addition, the remaining activity at 25 µg/mL in series [1] (0.25 h, 25 μg/ml, read-out: β-Hydroxy-β Methylglutaryl-CoA Reductase, percentage of control) was 54%. The remaining activity at 50 µg/mL in series [1] (0.25 h, 50 μg/ml, read-out: β-Hydroxy-β Methylglutaryl-CoA Reductase, percentage of control) amounted to 42%. Besides, the remaining activity at 100 µg/mL in series [1] (0.25 h, 100 μg/ml, read-out: β-Hydroxy-β Methylglutaryl-CoA Reductase, percentage of control) is 44%. Also, the “Effect on high density lipoprotein cholesterol levels” value in series [2] is “no significant effect”. The Side effects result in series [2] is reported as “no undesirable side effects”. Also, the “Effect on total and low density lipoprotein cholesterol” value in series [2] (even in low concentrations) was “lower concentrations of total and low density lipoprotein cholesterol”. Further, on HMG-CoA reductase, the “HMG-CoA Reductase, percentage of control” value is 63 Percentage of respective contr. Besides, the “HMG-CoA Reductase” value on HMG-CoA reductase (mean ± SD, N = 8) was 305 ± 18 pmoles of mevalonic acid synth.
